Measured values as given in article PMC3227869 (Biochemistry, 2009).

Experiments:
Format in all cases: biochemical
E. coli GCH I (FolE) = E. coli GCH I (FolE) (Escherichia coli, UniProt P0A6T5); test: HPLC of product; settings: anaerobic
mouse PTPS (mPTPS) = target: T1, mouse PTPS (mPTPS) (Mus musculus, UniProt Q9R1Z7); test: HPLC of product, UV-visible spectra; settings: anaerobic; H2NTP generated in situ from GTP by FolE; control reaction
T1 sequence (Q9R1Z7 1-144): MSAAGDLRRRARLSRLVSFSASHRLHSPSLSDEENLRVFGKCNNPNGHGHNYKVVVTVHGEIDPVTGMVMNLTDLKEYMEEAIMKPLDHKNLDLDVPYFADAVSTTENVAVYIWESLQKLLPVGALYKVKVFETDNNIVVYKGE

E. coli QueD = target: T2, E. coli QueD (Escherichia coli, UniProt P65870); test: HPLC of product, UV-visible spectra; settings: anaerobic (95% N2:5% H2)
T2 sequence (P65870 1-121): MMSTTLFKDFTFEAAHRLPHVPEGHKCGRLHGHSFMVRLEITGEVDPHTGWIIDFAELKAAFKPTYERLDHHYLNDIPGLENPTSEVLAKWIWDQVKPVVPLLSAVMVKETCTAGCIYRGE

E. coli GCH I (FolE), sequence (P0A6T5 2-222): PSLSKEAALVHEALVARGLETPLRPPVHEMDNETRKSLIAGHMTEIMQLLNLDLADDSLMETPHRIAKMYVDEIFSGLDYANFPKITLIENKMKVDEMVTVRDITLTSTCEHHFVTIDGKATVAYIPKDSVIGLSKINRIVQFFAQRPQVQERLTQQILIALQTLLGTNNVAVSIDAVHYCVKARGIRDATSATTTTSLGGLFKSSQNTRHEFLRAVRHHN

Nc1nc2c(ncn2[C@@H]2O[C@H](COP(=O)(O)OP(=O)(O)OP(=O)(O)O)[C@@H](O)[C@H]2O)c(=O)[nH]1 [GTP]
HPLC of product (E. coli GCH I (FolE)): H2NTP could be produced quantitatively from GTP

Nc1nc2c(c(=O)[nH]1)N=C([C@H](O)[C@H](O)COP(=O)(O)OP(=O)(O)OP(=O)(O)O)CN2 [H2NTP]
HPLC of product, UV-visible spectra (mouse PTPS (mPTPS)): H2NTP was quantitatively converted to PPH4

C[C@H](O)C(=O)C1=Nc2c(nc(N)[nH]c2=O)NC1 [sepiapterin]
HPLC of product, UV-visible spectra (E. coli QueD): the same product forms when sepiapterin is the substrate for QueD
